Tested on: Plasmodium falciparum
Assay: GSK_TCMDC: Inhibition of Plasmodium falciparum 3D7 in whole erythrocytes, using parasite LDH activity as an index of growth.
Format: functional, organism-based
Conditions: Plasmodium falciparum, 3D7

Compound | XC50
COc1ccc2c(N/N=C/c3ccccc3[N+](=O)[O-])cc(C)nc2c1 | 716 nM
O=C(Nc1n[nH]c2nc(-c3ccco3)c(Br)cc12)c1ccc(CN2CCCC2)cc1 | 791 nM
COc1cc(Cn2ccc3c4c(N)nc(N)nc4ccc32)cc(OC)c1OC | 9.34 nM
CCNCc1ccc(-c2cc3ncnc(Nc4ccc(OCc5cccc(F)c5)c(Cl)c4)c3s2)[nH]1 | 109 nM
Cc1[nH]c2ccccc2c1C(=O)C(C)Sc1nnc(-c2ccccc2Br)[nH]1 (stereo not given) | 34.8 nM
Cc1cc(NC(=O)Nc2cccc(N(C)C)c2)c2ccccc2n1 | 201 nM
O=C(/C=C/c1ccc(Cl)c(Cl)c1)NC1CCN(CCNC(=O)c2cccc(Cl)c2)CC1 | 550 nM
COc1cc2c(cc1OCCN1CCC(N3CCCC3)CC1)N(C(=O)/C=C/c1ccccc1Cl)CC2 | 659 nM
COc1ccc(NC(=O)Nc2ccc(Nc3nc(C)cc(N(C)C)n3)cc2)cc1 | 454 nM
COCc1cccc(-c2cc(-c3ccc(S(C)(=O)=O)cc3)cnc2N)c1 | 1000 nM
Nc1ccc(-c2ccc(NC(=O)Nc3cc(C(F)(F)F)ccc3F)cc2)cn1 | 657 nM
N=c1n(Cc2ccccc2)c2ccccc2n1CC(O)c1ccc(Cl)cc1 (stereo not given) | 879 nM
Cc1ccc(NC(=O)c2cc(Br)cc(N3CCCN(C)CC3)c2)cc1F | 1340 nM
CC(C)(Oc1ccc(Cl)cc1)C(=O)NCCC1CCN(CCCCCNC(=O)/C=C/c2ccc(Cl)c(Cl)c2)CC1 | 936 nM
O=C(/C=C/c1ccc(Cl)c(Cl)c1)NCCCCCN1CCC(CCCNC(=O)Nc2ccc(C(F)(F)F)cc2)CC1 | 872 nM
Cc1cccc(C(=O)Nc2ccnc(N(C)CCCN(C)Cc3cccc(C#N)c3)c2)c1 | 1320 nM
CCOC(=O)C(C)(C)Oc1ccc(C(=C2CC(C)(C)CC(C)(C)C2)c2ccc(O)cc2)cc1 | 1130 nM
CC(CCc1ccccc1)NCC(O)c1cccc([N+](=O)[O-])c1 (stereo not given) | 858 nM
O=C(NCCc1ccccc1)c1cc(-c2cccnc2)cnc1NCC1CC1 | 847 nM
CNCCN(C)C(=O)Oc1c(Cl)c(C)nc(C)c1-c1ccc(Oc2ccc(OC(F)(F)F)cc2)cc1 | 127 nM
O=S(=O)(NCCN1CCCC1)c1cccc(-c2ccccc2CNC2Cc3ccccc3C2)c1 | 738 nM
CCC(C)NC(=O)Cn1c2ncccc2c(=O)n1-c1ccc(C)cc1 (stereo not given) | 1260 nM
CN(C)c1ccc(CN2CCC(NC(=O)c3ccc(-c4ccccc4F)s3)CC2)cc1 | 1120 nM
CCCNC(=O)c1ccc(N2CCC(c3ccccc3C)CC2)nc1 | 1520 nM
O=C(Nc1ccc(N2CCCCC2)c(Cl)c1)c1nc[nH]n1 | 449 nM

Compound | XC50
CCN(CC)CCCN(CCCN(CC)CC)c1cc(C)nc(Nc2ccc(Cl)cc2)n1 | 211 nM
O=C(Nc1ccc(C(F)(F)F)cc1)c1ccc(S(=O)(=O)NC2CCN(CC3CCCCC3)C2)cc1 (stereo not given) | 723 nM
O=C(O)C1CC(=O)N(c2ccc(Cl)cc2)C1 (stereo not given) | 219 nM
COc1ccc(CCN(C)CCOc2ccc(NC(=O)c3cc(SC)cc4c(=O)c5ccccc5[nH]c34)cc2)cc1OC | 1400 nM
COCCNCc1ccc(-c2ccc3c(Nc4ccc(F)cc4Cl)ccnc3c2)o1 | 209 nM
N=C(N)NN=CC(=O)Nc1ccc(C(F)(F)F)cc1 | 932 nM
CSC1=NC(=Nc2c(C)cccc2C)C2(CCCCC2)N1c1ccccc1Cl | 817 nM
COc1ccc(-c2cnc(N)c(-c3nc4cc(Br)ccc4[nH]3)c2)cc1 | 1560 nM
O=C(Nc1ccc(-c2cccc(-c3nc4cc(F)ccc4[nH]3)c2)cc1)Nc1ccc(Cl)c(Cl)c1 | 647 nM
COc1ccc(C=NNc2cc(C)nc3ccc(OC)cc23)c(OC)c1 | 778 nM
Oc1ccc(CN2CCN(CCOC(c3ccccc3)c3ccccc3)CC2)cc1Cl | 806 nM
CN(CCN(C)CC(O)c1ccc(Cl)c(Cl)c1)CC(O)c1ccc(Cl)c(Cl)c1 (stereo not given) | 1100 nM
Cn1nc(C(F)(F)F)c(-c2ccc(F)cc2)c1NC(=O)Nc1ccccc1 | 804 nM
CN(C)c1ccc2c(c1)Sc1cc(N(C)C)ccc1N2C(=O)CCCC(=O)O | 802 nM
Cc1noc(C)c1-c1ccc(C(=C2CCCCCC2)c2ccc(O)cc2)cc1 | 189 nM
O=C(Nc1ccc(-c2ccc(-c3nc4cc(C(F)(F)F)ccc4[nH]3)s2)cc1)c1ccoc1 | 854 nM
O=C(CN1CCC(NCc2cnc(-c3ccc(Cl)cc3)[nH]2)CC1)N1CCc2ccccc21 | 650 nM
O=C(Cc1ccc(NC(=O)c2ccc(O)c(-c3ccc(Cl)c(Cl)c3)c2)cc1)NCc1cccc(C(F)(F)F)c1 | 878 nM
CC(Cc1ccc(OCc2ccccc2)cc1)Nc1nc(O)c2ccccc2n1 (stereo not given) | 568 nM
CCNc1cc(C)nc(Nc2ccc(NC(=O)c3c(F)cccc3Cl)cc2)n1 | 1120 nM
O=C(/C=C/c1ccc(Cl)c(Cl)c1)NCCCCCN1CCC(NC(=O)Nc2ccc(Br)cc2)CC1 | 567 nM
CNC(=O)c1cnc(Nc2ccc(N3CCN(C)CC3)cc2)nc1Nc1cccc(OC)c1 | 752 nM
CCOC(=O)c1c(C)n(-c2ccccc2)c2ccc(OC(=O)COc3ccc(Cl)cc3Cl)cc12 | 429 nM
O=C(/C=C/c1ccc(Cl)c(Cl)c1)NCCCCCN1CCC(NC(=O)Nc2ccc([N+](=O)[O-])cc2)CC1 | 686 nM
COc1ccc(CCN(C)CCCCc2ccc(NC(=O)c3cccc4c(=O)c5cc(F)ccc5sc34)cc2)cc1OC | 897 nM

Compound | XC50
O=C(NCCCNc1nc2ccccc2[nH]1)c1cccc(OC(F)(F)F)c1 | 566 nM
CC(C)CNCc1cccc(-c2ccc(CN(CCCN3CCN(C)CC3)C(=O)/C=C/c3ccccc3)cc2)c1 | 857 nM
NC(=O)c1ccccc1OCC(=O)Nc1cccc(-c2ccc(-c3nc4ccccc4[nH]3)cc2)c1 | 786 nM
CCOc1ccc2c(=NN=Cc3ccccn3)cc(C)[nH]c2c1 | 862 nM
Cc1[nH]c2c(C)cc(NS(C)(=O)=O)cc2c1C1CCN(CC2CCN(C(=O)/C=C/c3ccc(Cl)c(Cl)c3)CC2)CC1 | 241 nM
O=C(/C=C/c1ccc(Cl)c(Cl)c1)NCCC(CN1CCC(c2c[nH]c3ccccc23)CC1)c1ccccc1 (stereo not given) | 570 nM
Cc1ccc(NS(=O)(=O)c2ccc(C(C)N3CCC(N4CCCCC4)CC3)cc2)cc1C (stereo not given) | 763 nM
CN(C)C(=O)CN1CCN(c2ncnc(N3CCc4c([nH]c5ccccc45)[C@@H]3c3ccc4c(c3)CCO4)n2)CC1 | 871 nM
CCN(CC)CCCOC(=O)c1ccc2c(c1)-c1ccc(C(=O)OCCCN(CC)CC)c3cccc-2c13 | 933 nM
COc1cccc(-c2cnc(N)c(-c3nc4ccc(C(F)(F)F)cc4[nH]3)c2)c1 | 652 nM
COc1ccc2cc(C(C)NC3CCN(c4cccc(NC(=O)c5ccncc5)c4)CC3)ccc2c1 (stereo not given) | 1550 nM
Cc1cc(N[C@@H](CC(C)C)C(=O)Nc2ccccc2)nc(NCC2CCCCC2)n1 | 874 nM
FC(F)(F)c1ccc(COc2cc(Cl)ccc2Cn2ccnc2)cc1 | 649 nM
CC(C)C[C@H](NC(=O)c1ccc(OCCN2CCOCC2)cc1)C(=O)N[C@H](/C=N/N1CCN(C)C1=O)CCc1ccccc1 | 294 nM
Cc1cc(NC(=O)c2ccco2)ccc1OC1CCN(Cc2ccc(F)cc2)CC1 | 588 nM
COc1cccc(NC(=O)Nc2cc(-c3ccc4[nH]ncc4c3)cc3c2CNC3=O)c1 | 117 nM
COc1ccc(C2CC(=O)C3=C(C2)NC(C)=C(C(=O)OC(C)C)C3c2ccc(O)cc2)cc1OC (stereo not given) | 278 nM
COc1cccc(C(O)CNc2ccnc(Nc3cccc(-c4csc(C)n4)c3)n2)c1 (stereo not given) | 786 nM
NC1CCCN(Cc2cccc(-c3ccc(-c4nc5ccccc5[nH]4)s3)c2)C1 (stereo not given) | 585 nM
CC(C)(C)c1ccc(CN2CCC(NC(=O)c3ccc(-c4cccc(Cl)c4)s3)CC2)cc1 | 1070 nM
CCCCCCOc1ccc(C(=O)NCCC2CCN(CCCCCNC(=O)C=Cc3ccc(Cl)c(Cl)c3)CC2)cc1 | 656 nM
O=C(Nc1cccc(-c2nn3ncccc3c2-c2ccnc(Nc3cccc(C(F)(F)F)c3)n2)c1)c1c(F)cccc1F | 648 nM
CC(C)c1ccc(Cn2cc(-c3ccncc3)c3cc(OCc4ccccc4)ccc32)cc1 | 706 nM
CCc1c(C)nc(-n2nc(C)cc2NC(=O)CCc2ccccc2)[nH]c1=O | 752 nM
CCOC(=O)CNC(=O)N1CCN(C(=O)NCC(=O)OCC)CC1 | 848 nM

Compound | XC50
Cc1ccc(Nc2ccnc(Nc3ccc(C)c(F)c3)n2)cc1O | 761 nM
Cc1cc(=NN=Cc2ccccc2Cl)c2ccc(F)cc2[nH]1 | 257 nM
Cn1c(NC2CCN(CC3CCN(C(=O)/C=C/c4ccc(Cl)c(Cl)c4)CC3)CC2)nc2ccccc21 | 148 nM
O=C(Nc1ccc(CN2CCOCC2)cc1)c1ccc(-c2ccc(Br)cc2)o1 | 1120 nM
COc1nc(N)ncc1C(=O)NC1CN2CCC1CC2 (stereo not given) | 235 nM
Cc1cc(N(C)C)nc(Nc2ccc(NC(=O)c3cccc(F)c3)cc2)n1 | 998 nM
CC1(C)NC(N)=NC(=N)N1OCc1cccs1 | 3.2 nM
Clc1ccc(CNc2nc(NCCc3c[nH]cn3)nc(NC3CCCCC3)n2)cc1 | 209 nM
O=C(Nc1cccc(CN2CCCN(Cc3cccnc3)CC2)c1)c1ccc(Cl)c(Cl)c1 | 928 nM
CCCCc1ccc(-c2nc(NC(=O)Nc3[nH]c(-c4ccccc4)nc3C(=O)OCC)c(C(=O)OCC)[nH]2)cc1 | 752 nM
CC(NCC(O)Cn1c2ccccc2c2ccccc21)c1ccccc1 (stereo not given) | 931 nM
Cc1nc2nc(N)nc(N)c2c(C)c1Cc1ccccc1 | 248 nM
Cc1cccc2nc(-c3ccc(-c4cccc(CNCCNC(=O)c5ccnn5C)c4)s3)[nH]c12 | 216 nM
O=c1cc(NCCCNCc2cc3ccccc3s2)[nH]c2ccccc12 | 1270 nM
N#Cc1cnc(Nc2ccc(Oc3ccccc3)cc2)nc1Nc1cccc(S(N)(=O)=O)c1 | 555 nM
Cc1cc(C(=O)Nc2ccc(-c3nc4ccccc4[nH]3)cc2)ccc1[N+](=O)[O-] | 671 nM
Cc1[nH]c2c(C)cccc2c1C1CCN(CCC2CCN(C(=O)/C=C/c3ccc(Cl)c(Cl)c3)CC2)CC1 | 636 nM
COc1ccc(CN2CCN(CCOC(c3ccccc3)c3ccccc3)CC2)c(O)c1 | 1190 nM
CN(CC(=O)Nc1ccc(F)cc1)C(=O)c1ccc(-c2ccc(F)cc2)o1 | 934 nM
O=[N+]([O-])c1ccc(/C=N/Nc2cc(-c3ccccc3)nc3ccccc23)o1 | 863 nM
COc1ccc(-c2cnc(N)nc2N)cc1Cl | 1400 nM
O=C(/C=C/c1ccc(Cl)c(Cl)c1)NCCCCCN1CCC(NC(=O)Nc2ccc(C(F)(F)F)cc2)CC1 | 750 nM
CN(C)c1ccc(-c2csc(C(=O)NCC3CCN(CC4CCCCC4)C3)c2)cc1 (stereo not given) | 1140 nM
CCN(CCCN1CCCCC1)c1cc(C)nc(Nc2ccc(Oc3ccccc3)cc2)n1 | 298 nM
COc1ccc(-c2cnc3[nH]cc(-c4ccc(C(=O)O)cc4)c3c2)cn1 | 541 nM

Reference: ChEMBL document CHEMBL1157539, “Thousands of chemical starting points for antimalarial lead identification” (Nature, 2010)
